Data reported in patent US20110183978A1, “Phenylpyri(mi)dinylazoles” (Bayer CropScience AG, priority 2009, published 2011).
Like-named read-outs stand apart in the source and are kept apart here.

Columns and labels:
Peronospora parasitica = assay: Example A: in vivo test on Peronospora parasitica (downy mildew on white cabbage); conditions: Hyaloperonospora parasitica, 120 h, cabbage plants sprayed 24 hours before inoculation, scored after 5 days, read-out: % Wirkungsgrad
Experimental: In Vivo Test on Peronospora Parasitica (Downy Mildew on White Cabbage) An aqueous suspension of the active substance was prepared by homogenization of a mixture of acetone/Tween (dispersant)/dimethyl sulphoxide (DMSO) and subsequent dilution with water to the desired concentration. Cabbage plants (variety: Eminence) are sown in cultivation dishes on a peat-pozzolanic earth substrate (50/50) at 18-20° C. and sprayed at the cotyledon stage with the aqueous suspension described above. As a control, plants are sprayed with an aqueous solution with no active substance. After 24 hours, the plants are inoculated by spraying with an aqueous suspension of Peronospora parasitica spores (50,000 spores per ml). The spores are derived from infected plants. The inoculated cabbage plants are incubated for 5 days at ca. 20° C. in a moist atmosphere. After 5 days, they are scored in comparison with the control plants.

Alternaria solani = assay: Example M: in vivo test on Alternaria solani (leaf blotch disease/tomato/protective); conditions: 168 h, tomato, protective, 500 ppm active substance, assessed 7 days after inoculation, read-out: % Wirkungsgrad (activity level)
How it was run: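 Protective test: young tomato plants sprayed with active substance (in DMF with alkylaryl polyglycol ether emulsifier, diluted in water) at the stated dosage, then inoculated with Alternaria solani. Disease assessed 7 days after inoculation.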

Sphaerotheca fuliginea [1] = assay: Example L: in vivo test on Sphaerotheca fuliginea (powdery mildew on cucumber/protective); conditions: Podosphaera fuliginea, 168 h, cucumber, protective, assessment 7 days after inoculation, read-out: % Wirkungsgrad
How it was run: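 Young cucumber plants sprayed at stated dosage with compound in DMF/alkylaryl polyglycol ether emulsifier diluted in water; inoculated with S. fuliginea spores one day later. Kept in greenhouse at 70% relative humidity, 23° C; protective activity assessed 7 days after inoculation.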

Fusarium proliferatum = assay: Example I: production of fumonisin FB1 by Fusarium proliferatum (microtitre plates); assay type: cell-based; conditions: 120 h
Sphaerotheca fuliginea [2] = assay: Example D: in vivo test on Sphaerotheca fuliginea (powdery mildew on cucumber); conditions: Podosphaera fuliginea, 288 h, cucumber plants sprayed 24 hours before inoculation, scored after 12 days, read-out: % Wirkungsgrad
Experimental: In Vivo Test on Sphaerotheca Fuliginea (Powdery Mildew on Cucumber) An aqueous suspension of the active substance was prepared by homogenization of a mixture of acetone/Tween/dimethyl sulphoxide and subsequent dilution with water to the desired concentration. Cucumber plants (variety: Vert petit de Paris) are sown in cultivation dishes on a peat-pozzolanic earth substrate (50/50) at 20/23° C. and at the cotyledon stage Z10 sprayed with the aqueous suspension described above. As a control, plants are sprayed with an aqueous solution with no active substance. After 24 hours the plants are inoculated by spraying with an aqueous suspension of Sphaerotheca fuliginea spores (100,000 spores per ml). The spores are derived from a contaminated plant. The inoculated cucumber plants are incubated at ca. 20/25° C. at a relative atmospheric humidity of 60/70%. After 12 days they are scored in comparison with the control plants.

Fusarium graminearum = assay: microbe, parasite or virus in culture; assay type: cell-based
Venturia inaequalis = assay: Example O: in vivo test on Venturia inaequalis (apple scab/protective); conditions: 240 h, protective, assessment 10 days after inoculation, read-out: % Wirkungsgrad
Experimental: (§1) Emulsifier: 1 part by weight alkylaryl polyglycol ethers For the preparation of a suitable active substance preparation, 1 part by weight of active substance is mixed with the stated quantities of solvent and emulsifier and the concentrate is diluted to the desired concentration with water. For the testing for protective activity, young plants are sprayed with the active substance preparation at the stated application dosage. […] 10 days after the inoculation, the assessment takes place.

Botrytis cinerea = assay: Example P: in vivo test on Botrytis cinerea (gray mould on bean/protective); conditions: 48 h, bean, protective, 250 ppm active substance, assessed 2 days after inoculation, read-out: % Wirkungsgrad (activity level)
Experimental: as §1, with “dosage. After drying of the spray coating, 2 small pieces of agar with Botrytis cinerea growing on them are laid on every leaf.” for “dosage.”, “2” for “10”, “size of the infection blotches on the leaves is assessed.” for “assessment takes place.”

[3] = LogPA (logP of the stated pure compound or, in a mixture, of the main isomer, 1-substituted 3-aryl-1H-pyrazole)
[4] = Fusarium proliferatum growth, OD 620, 5 days, read-out: % Inhibition des Pilzwachstums bei 50 μM
[5] = Fusarium proliferatum, 5 days at 20° C., HPLC-MS/MS, read-out: % Inhibition der FB1 produktion bei 50 μM
[6] = 72 h, read-out: % Inhibition des Pilzwachstums bei 50 μM
[7] = 168 h, read-out: % Inhibition der DON/AcDON produktion bei 50 μM

| SMILES | chromatographic logP (physchem; [3]) | pest or weed control at 500 ppm (Peronospora parasitica) [%] | pest or weed control at 500 ppm (Alternaria solani) [%] | pest or weed control at 500 ppm (Sphaerotheca fuliginea [1]) [%] | inhibition at 50 µM (Fusarium proliferatum; [4]) [%] | inhibition at 50 µM (Fusarium proliferatum; [5]) [%] | pest or weed control at 500 ppm (Sphaerotheca fuliginea [2]) [%] | inhibition at 50 µM (Fusarium graminearum; [6]) [%] | inhibition at 50 µM (Fusarium graminearum; [7]) [%] | pest or weed control at 100 ppm (Venturia inaequalis) [%] | pest or weed control at 250 ppm (Botrytis cinerea) [%] | chromatographic logP (physchem; LogPA) |
| --- | --- | --- | --- | --- | --- | --- | --- | --- | --- | --- | --- | --- |
| Clc1cccc(-c2nn(C3CCCCO3)cc2-c2ccncc2)c1 (stereo not shown) [Compound 28] | 1.55 | 97 | – | – | – | – | – | – | – | – | – | – |
| Fc1ccc(-c2nn(C3CCCCO3)cc2-c2ccncc2)cc1 (stereo not shown) [Compound 9] | 1.29 | – | 89 | 90 | 40 | 96 | 75 | – | – | – | – | – |
| FC1(F)Oc2cccc(-c3c(-c4ccncc4)cnn3C3CCCCO3)c2O1 (stereo not shown) [Compound 33] | 1.64 | 93 | – | – | 99 | 99 | 71 | – | – | – | – | – |
| COCCOCCn1cc(-c2ccncc2)c(-c2ccc(F)cc2)n1 [Compound 134] | 1.04 | 94 | 100 | – | – | – | 85 | – | – | – | – | – |
| CC(C)n1cc(-c2ccnc(N)c2)c(-c2ccc(F)cc2)n1 [Compound 46] | 1.18 | 94 | – | – | – | – | 81 | – | – | – | – | – |
| COC(=O)C(C)n1cc(-c2ccncc2)c(-c2ccc(F)cc2)n1 (stereo not shown) [Compound 107] | 1.2 | – | – | – | – | – | 91 | – | – | – | – | – |
| Fc1ccc(-c2nn(Cc3cnc(Cl)s3)cc2-c2ccncc2)cc1 [Compound 110] | 1.54 | – | – | – | – | – | 79 | – | – | – | – | – |
| Cc1cc(F)ccc1-c1c(-c2ccncc2)cnn1C1CCCCO1 (stereo not shown) [Compound 37] | 1.4 | – | – | – | – | – | 78 | 13 | 80 | – | – | – |
| CC(C)Cn1cc(-c2ccnc(NC(=O)C(C)C)n2)c(-c2ccc(F)cc2)n1 [Compound 189] | – | – | 95 | – | 0 | 90 | – | – | – | 84 | 93 | 2.92 |
| CC(C)=CCn1ncc(-c2ccncc2)c1-c1c(F)cccc1F [Compound 22] | 1.72 | 97 | – | – | – | – | 71 | – | – | – | – | – |
| CCOC(=O)Nc1cc(-c2cn(C(C)CC)nc2-c2ccc(F)cc2)ccn1 (stereo not shown) [Compound 268] | – | – | 80 | 100 | – | – | – | 32 | 90 | 98 | 100 | 3.08 |
| CC(C)On1cc(-c2ccnc(NC(=O)C3CC3)c2)c(-c2ccc(F)cc2)n1 [Compound 271] | – | – | 89 | 79 | – | – | – | 71 | 99 | 81 | 93 | 2.73 |
| CC(C)(C)Cn1cc(-c2ccncc2)c(-c2c(F)cccc2F)n1 [Compound 11] | 1.84 | – | 80 | 73 | – | – | 93 | – | – | – | – | – |
| CC(C)C(=O)Nc1cc(-c2cn(CCCl)nc2-c2ccc(F)cc2)ccn1 [Compound 222] | – | – | 90 | 100 | 96 | 100 | – | 99 | 82 | 95 | 85 | 2.33 |
| Fc1ccc(-c2nn(Cc3cccc(Oc4ccccc4)c3)cc2-c2ccncc2)cc1 [Compound 138] | 2.36 | – | – | – | – | – | 77 | – | – | – | – | – |
| CC(C)n1cc(-c2ccnc(NC(=O)C(O)CO)c2)c(-c2ccc(F)cc2)n1 (stereo not shown) [Compound 210] | – | – | 80 | 100 | – | – | – | 85 | 100 | 78 | 98 | 1.76 |
| CC(C)n1cc(-c2ccnc(NC(=O)C3CCC3)c2)c(-c2ccc(F)cc2)n1 [Compound 156] | 2.57 | – | 94 | 94 | 93 | 100 | – | 99 | 81 | 91 | 98 | – |
| Clc1cccc(-c2nn(C3CCCCO3)cc2-c2ccnc3[nH]ccc23)c1 (stereo not shown) [Compound 32] | 2.46 | 79 | – | – | – | – | – | – | – | – | – | – |
| COCC(=O)Nc1cc(-c2cn(CCCl)nc2-c2ccc(F)cc2)ccn1 [Compound 220] | – | – | 95 | 97 | 99 | 100 | – | 100 | 99 | 96 | 100 | 2.36 |
| COCC(=O)Nc1cc(-c2cn(C3CCCCO3)nc2-c2ccc(F)cc2)ccn1 (stereo not shown) [Compound 23] | 2.64 | 100 | – | – | 73 | 100 | – | – | – | – | – | – |
| CC(C)(C)C(=O)Nc1cc(-c2cn(C3CCCCO3)nc2-c2ccc(F)cc2)ccn1 (stereo not shown) [Compound 41] | 3.19 | 72 | – | – | 56 | 100 | 98 | – | – | – | – | – |
| COCCOCC(=O)Nc1cc(-c2cn(C(C)C)nc2-c2ccc(F)cc2)ccn1 [Compound 208] | – | – | 80 | 100 | – | – | – | 101 | 100 | 78 | 100 | 2.62 |
